According to PMC3562233 (PLoS ONE, 2013):

Experiments:
S31N M2 [1] = target: T1, S31N M2 (Influenza A virus, UniProt P0DOF5, S31N); type: cell-based, influenza A virus (Udorn strain)
V27A M2 [2] = target: T2, V27A M2 (Influenza A virus, UniProt P0DOF5, V27A); type: cell-based, influenza A virus (Udorn strain)
V27A M2 [3] = target: T2, V27A M2; type: cell-based
S31N M2 [4] = target: T1, S31N M2; type: cell-based

`NC12CC3CC(CC(C3)C1)C2` [Amantadine, reference compound] was tested, and the “activity against S31N mutant in the yeast assay” value (S31N M2 [1]) was “did not increase the growth” and the “activity against V27A mutant in the yeast assay” value (V27A M2 [2]) was “did not increase the growth”.

In the case of `O=[N+]([O-])c1ccc(CNC23CC4CC(CC(C4)C2)C3)cc1` [Compound 4, 1-adamantyl (4-nitrobenzyl)amine], the “% inhibition at 100 µM in TEVC V27A” value (V27A M2 [3]) was 9.7 ± 0.3% and the “% inhibition at 100 µM in TEVC S31N” value (S31N M2 [4]) was 15.9 ± 0.2%.

For `CC1(C)C2CCC1(C)C(N1CCNCC1)C2.Cl.Cl` (stereo not drawn) [Compound 16, 1-(1,7,7-trimethylbicyclo[2.2.1]hept-2-yl)piperazine dihydrochloride], the “activity against S31N mutant in the yeast assay” value (S31N M2 [1]) was “inactive”.

With `NC1CCC2(CC1)C1CC3CC(C1)CC2C3` (stereo not drawn) [spiroadamantane amine] the “concentration that clearly increased growth of the V27A strain” value (V27A M2 [2]) was ≥ 0.01 µM.
